Assay results taken from ChEMBL document CHEMBL2034905, “Synthesis of benzimidazolyl-1,3,4-oxadiazol-2ylthio-N-phenyl (benzothiazolyl) acetamides as antibacterial, antifungal and antituberculosis agents” (Eur J Med Chem, 2012).
≈ marks a conversion by molar mass, not a printed value.

Tests used:
[1] = system: Mycobacterium tuberculosis; test: Antituberculosis activity against Mycobacterium tuberculosis H37Rv by Lowenstein-Jensen method; format: functional
[2] = system: Mycobacterium tuberculosis; test: Antituberculosis activity against Mycobacterium tuberculosis H37Rv at 6.25 ug/ml by Lowenstein-Jensen method; format: functional
[3] = Lipophilicity, log P of the compound; format: physicochemical; details: octanol/water
Staphylococcus aureus [4] = test: Antibacterial activity against Staphylococcus aureus MTCC 96 at 100 ug/disc by paper disc diffusion technique; format: functional; details: read-out: IZ
Bacillus cereus [5] = test: Antibacterial activity against Bacillus cereus MTCC 430 at 100 ug/disc by paper disc diffusion technique; format: functional; details: read-out: IZ
Escherichia coli [6] = test: Antibacterial activity against Escherichia coli MTCC 739 at 100 ug/disc by paper disc diffusion technique; format: functional; details: read-out: IZ
Pseudomonas aeruginosa [7] = test: Antibacterial activity against Pseudomonas aeruginosa MTCC 741 at 100 ug/disc by paper disc diffusion technique; format: functional; details: read-out: IZ
Klebsiella pneumoniae [8] = test: Antibacterial activity against Klebsiella pneumoniae MTCC 109 at 100 ug/disc by paper disc diffusion technique; format: functional; details: read-out: IZ
Salmonella typhi [9] = test: Antibacterial activity against Salmonella typhi MTCC 733 at 100 ug/disc by paper disc diffusion technique; format: functional, Salmonella enterica subsp. enterica serovar Typhi; details: Salmonella enterica, read-out: IZ
Proteus vulgaris [10] = test: Antibacterial activity against Proteus vulgaris MTCC 1771 at 100 ug/disc by paper disc diffusion technique; format: functional; details: read-out: IZ
Shigella flexneri [11] = test: Antibacterial activity against Shigella flexneri MTCC 1457 at 100 ug/disc by paper disc diffusion technique; format: functional; details: read-out: IZ
Staphylococcus aureus [12] = test: Antibacterial activity against Staphylococcus aureus MTCC 96 by agar streak dilution method; format: functional
Bacillus cereus [13] = test: Antibacterial activity against Bacillus cereus MTCC 430 by agar streak dilution method; format: functional
Escherichia coli [14] = test: Antibacterial activity against Escherichia coli MTCC 739 by agar streak dilution method; format: functional
Pseudomonas aeruginosa [15] = test: Antibacterial activity against Pseudomonas aeruginosa MTCC 741 by agar streak dilution method; format: functional
Klebsiella pneumoniae [16] = test: Antibacterial activity against Klebsiella pneumoniae MTCC 109 by agar streak dilution method; format: functional
Salmonella typhi [17] = test: Antibacterial activity against Salmonella typhi MTCC 733 by agar streak dilution method; format: functional, Salmonella enterica subsp. enterica serovar Typhi; details: Salmonella enterica
Proteus vulgaris [18] = test: Antibacterial activity against Proteus vulgaris MTCC 1771 by agar streak dilution method; format: functional
Shigella flexneri [19] = test: Antibacterial activity against Shigella flexneri MTCC 1457 by agar streak dilution method; format: functional
Aspergillus niger [20] = test: Antifungal activity against Aspergillus niger MTCC 282 at 100 ug/disc by paper disc diffusion technique; format: functional; details: read-out: IZ
Aspergillus fumigatus [21] = test: Antifungal activity against Aspergillus fumigatus MTCC 343 at 100 ug/disc by paper disc diffusion technique; format: functional; details: read-out: IZ
Aspergillus clavatus [22] = test: Antifungal activity against Aspergillus clavatus MTCC 1323 at 100 ug/disc by paper disc diffusion technique; format: functional; details: read-out: IZ
Candida albicans [23] = test: Antifungal activity against Candida albicans MTCC 183 at 100 ug/disc by paper disc diffusion technique; format: functional; details: read-out: IZ
Aspergillus niger [24] = test: Antifungal activity against Aspergillus niger MTCC 282 by agar streak dilution method; format: functional
Aspergillus fumigatus [25] = test: Antifungal activity against Aspergillus fumigatus MTCC 343 by agar streak dilution method; format: functional
Aspergillus clavatus [26] = test: Antifungal activity against Aspergillus clavatus MTCC 1323 by agar streak dilution method; format: functional
Candida albicans [27] = test: Antifungal activity against Candida albicans MTCC 183 by agar streak dilution method; format: functional
[28] = system: Mycobacterium tuberculosis; test: Antituberculosis activity against Mycobacterium tuberculosis H37Rv by BACTEC MGIT method; format: functional

Row | Compound | MIC [1] | inhibition at 6.25 µg/mL [2] | logP [3] | zone of inhibition at 100 µg/disc (Staphylococcus aureus [4]) | zone of inhibition at 100 µg/disc (Bacillus cereus [5]) | zone of inhibition at 100 µg/disc (Escherichia coli [6]) | zone of inhibition at 100 µg/disc (Pseudomonas aeruginosa [7]) | zone of inhibition at 100 µg/disc (Klebsiella pneumoniae [8]) | zone of inhibition at 100 µg/disc (Salmonella typhi [9]) | zone of inhibition at 100 µg/disc (Proteus vulgaris [10]) | zone of inhibition at 100 µg/disc (Shigella flexneri [11]) | MIC (Staphylococcus aureus [12]) | MIC (Bacillus cereus [13]) | MIC (Escherichia coli [14]) | MIC (Pseudomonas aeruginosa [15]) | MIC (Klebsiella pneumoniae [16]) | MIC (Salmonella typhi [17]) | MIC (Proteus vulgaris [18]) | MIC (Shigella flexneri [19]) | zone of inhibition at 100 µg/disc (Aspergillus niger [20]) | other results
1 | O=C(CSc1nnc(Cn2cnc3ccccc32)o1)Nc1nc2ccc(F)cc2s1 | 12.5 µg/mL (≈ 28.4 µM) | 99% | 3.85 | 25 mm | 29 mm | 17 mm | 20 mm | 19 mm | 24 mm | 22 mm | 24 mm | 3.12 µg/mL (≈ 7.08 µM) | 6.25 µg/mL (≈ 14.2 µM) | 50 µg/mL (≈ 114 µM) | 50 µg/mL (≈ 114 µM) | 50 µg/mL (≈ 114 µM) | 25 µg/mL (≈ 56.8 µM) | 25 µg/mL (≈ 56.8 µM) | 6.25 µg/mL (≈ 14.2 µM) | 21 mm | zone of inhibition at 100 µg/disc (Aspergillus fumigatus [21]): 23 mm; zone of inhibition at 100 µg/disc (Aspergillus clavatus [22]): 21 mm; zone of inhibition at 100 µg/disc (Candida albicans [23]): 23 mm; MIC (Aspergillus niger [24]): 25 µg/mL (≈ 56.8 µM); MIC (Aspergillus fumigatus [25]): 25 µg/mL (≈ 56.8 µM); MIC (Aspergillus clavatus [26]): 50 µg/mL (≈ 114 µM); MIC (Candida albicans [27]): 50 µg/mL (≈ 114 µM); MIC [28]: > 6.25 µg/mL
2 | COc1ccc2nc(NC(=O)CSc3nnc(Cn4cnc5ccccc54)o3)sc2c1 | 12.5 µg/mL (≈ 27.6 µM) | 99% | 3.56 | 19 mm | 20 mm | 18 mm | 12 mm | 21 mm | 20 mm | 26 mm | 24 mm | 25 µg/mL (≈ 55.2 µM) | 50 µg/mL (≈ 110 µM) | 50 µg/mL (≈ 110 µM) | 100 µg/mL (≈ 221 µM) | 50 µg/mL (≈ 110 µM) | 50 µg/mL (≈ 110 µM) | 12.5 µg/mL (≈ 27.6 µM) | 6.25 µg/mL (≈ 13.8 µM) | 17 mm | zone of inhibition at 100 µg/disc (Aspergillus fumigatus [21]): < 10 mm; zone of inhibition at 100 µg/disc (Aspergillus clavatus [22]): 22 mm; zone of inhibition at 100 µg/disc (Candida albicans [23]): 25 mm; MIC (Aspergillus niger [24]): 50 µg/mL (≈ 110 µM); MIC (Aspergillus fumigatus [25]): 100 µg/mL (≈ 221 µM); MIC (Aspergillus clavatus [26]): 50 µg/mL (≈ 110 µM); MIC (Candida albicans [27]): 25 µg/mL (≈ 55.2 µM); MIC [28]: > 6.25 µg/mL
3 | O=C(CSc1nnc(Cn2cnc3ccccc32)o1)Nc1nc2ccc(Br)cc2s1 | 25 µg/mL (≈ 49.9 µM) | 99% | 4.52 | 26 mm | 24 mm | 19 mm | 23 mm | 14 mm | 24 mm | 20 mm | 23 mm | 3.12 µg/mL (≈ 6.22 µM) | 25 µg/mL (≈ 49.9 µM) | 50 µg/mL (≈ 99.7 µM) | 25 µg/mL (≈ 49.9 µM) | 100 µg/mL (≈ 199 µM) | 25 µg/mL (≈ 49.9 µM) | 50 µg/mL (≈ 99.7 µM) | 12.5 µg/mL (≈ 24.9 µM) | 19 mm | zone of inhibition at 100 µg/disc (Aspergillus fumigatus [21]): 21 mm; zone of inhibition at 100 µg/disc (Aspergillus clavatus [22]): 20 mm; zone of inhibition at 100 µg/disc (Candida albicans [23]): 17 mm; MIC (Aspergillus niger [24]): 50 µg/mL (≈ 99.7 µM); MIC (Aspergillus fumigatus [25]): 50 µg/mL (≈ 99.7 µM); MIC (Aspergillus clavatus [26]): 50 µg/mL (≈ 99.7 µM); MIC (Candida albicans [27]): 100 µg/mL (≈ 199 µM); MIC [28]: > 6.25 µg/mL
4 | CC(=O)Nc1ccc2nc(NC(=O)CSc3nnc(Cn4cnc5ccccc54)o3)sc2c1 | 50 µg/mL (≈ 104 µM) | 98% | 2.6 | 19 mm | 16 mm | 20 mm | < 10 mm | 20 mm | 16 mm | 24 mm | 16 mm | 50 µg/mL (≈ 104 µM) | 100 µg/mL (≈ 209 µM) | 50 µg/mL (≈ 104 µM) | 100 µg/mL (≈ 209 µM) | 50 µg/mL (≈ 104 µM) | 100 µg/mL (≈ 209 µM) | 12.5 µg/mL (≈ 26.1 µM) | 100 µg/mL (≈ 209 µM) | 24 mm | zone of inhibition at 100 µg/disc (Aspergillus fumigatus [21]): < 10 mm; zone of inhibition at 100 µg/disc (Aspergillus clavatus [22]): 23 mm; zone of inhibition at 100 µg/disc (Candida albicans [23]): 23 mm; MIC (Aspergillus niger [24]): 12.5 µg/mL (≈ 26.1 µM); MIC (Aspergillus fumigatus [25]): 100 µg/mL (≈ 209 µM); MIC (Aspergillus clavatus [26]): 50 µg/mL (≈ 104 µM); MIC (Candida albicans [27]): 50 µg/mL (≈ 104 µM); MIC [28]: > 6.25 µg/mL
